Data published in PMC12278462, “Site-selective arylations of nature-inspired flavonoids or steroidal phenols via C—H or O—H activation” (Journal of Enzyme Inhibition and Medicinal Chemistry, 2025).
Like-named read-outs stand apart in the source and are kept apart here.

Assays:
MDA-MB-231 [1] = experiment: MTT antiproliferative assay, MDA-MB-231; format: cell-based, human; settings: Homo sapiens; for inhibition at 10 µM: MDA-MB-231, 10 µM; for inhibition at 10 µM / inhibition at 30 µM: 72 h; for inhibition at 30 µM: MDA-MB-231, 30 µM; for IC50: MDA-MB-231, 72 h, read-out: calculated IC50 MDA-MB-231
Description: (§1) We evaluated the cytotoxic activity of the newly synthesised arylated compounds 13–17 by the MTT assay[37] on a panel of human adherent cancer cell lines. The panel included breast (MCF-7 and MDA MB-231) and cervical (HeLa, SiHa and C33A) cancer cell lines differing in receptorial or HPV status. Tumour selectivity was determined on the NIH/3T3 mouse fibroblast cell line.
(§2) Briefly, the panels of breast and cervical cancerous cell lines, differing by their receptorial and HPV status were used, precisely MCF-7 (ER, PR and HER2 positive) and MDA-MB-231 (TNBC) breast carcinoma and HeLa (HPV18+), SiHa (HPV16+), C33A (HPV-) cervical carcinoma cells. Non-cancerous NIH/3T3 mouse fibroblast cell line was used for selectivity study. MCF-7, MDA-MB-231, Hela and NIH/3T3 cell lines were purchased from ECACC (European Collection of Cell Cultures, Salisbury, UK), while SiHa and C33A from ATCC (American Tissue Culture Collection, LGC Standards GmbH, Wesel, Germany). Cells were maintained in Eagle's Minimum Essential Medium (EMEM, Capricorn Scientific GmbH, Ebsdorfergrund, Germany) supplemented with 10% heat-inactivated fetal bovine serum (FBS), 1% non-essential amino acids (NEAA), and 1% antibiotic-antimycotic mixture (penicillin–streptomycin). The cells were maintained at 37 °C in a humidified atmosphere containing 5% CO2.
(§3) For measurements cells were seeded for 96-well plates at a density of 5 000/well, except for C33A, which was seeded in 10 000cells for each well. After overnight standing cells were treated with 10 and 30 µM solutions for screening and increasing concentrations (0.1-30.0 µM) of the test compounds were used for concentration-response curves. After incubation for 72 hours under cell culturing condition 5 mg/ml MTT (3-(4,5-[…])-2,5-diphenyl-2H-tetrazolium bromide) solution was added for another 4 h. The precipitated formazan crystals were solubilized in DMSO and the absorbance was measured at 545 nm with a microplate reader (BMG Labtech, Ortenberg, Germany). Wells with untreated cells were utilized as control, and inhibition % were calculated by GraphPad Prism v 9.0 software (GraphPad Software, San Diego, CA, USA). If the growth-inhibition exceeded 70% at 30 µM concentration during the screening concentration-response curves were fitted and IC50 values were calculated by GraphPad Prism v 9.0. The experiments were performed with five parallel wells for each experimental condition and repeated at least twice.

SiHa = experiment: MTT antiproliferative assay, SiHa; format: cell-based, human; settings: Homo sapiens, SiHa, 72 h; for IC50: read-out: calculated IC50 SiHa
Description: as §1, §2, §3

MCF-7 = experiment: MTT antiproliferative assay, MCF-7; format: cell-based, human; settings: Homo sapiens; for inhibition at 10 µM: MCF7, 10 µM; for inhibition at 10 µM / inhibition at 30 µM: 72 h; for inhibition at 30 µM: MCF7, 30 µM; for IC50: MCF7, 72 h, read-out: calculated IC50 MCF-7
Description: as §1, §2, §3

C33A = experiment: MTT antiproliferative assay, C33A; format: cell-based, human; settings: Homo sapiens, C-33-A, 72 h; for IC50: read-out: calculated IC50 C33A
Description: as §1, §2, §3

HeLa = experiment: MTT antiproliferative assay, HeLa; format: cell-based, human; settings: Homo sapiens, HeLa, 72 h; for IC50: read-out: calculated IC50 HeLa
Description: as §1, §2, §3

[2] = tested on: NIH/3T3 mouse fibroblast cell line; experiment: MTT assay, tumour selectivity on non-cancerous fibroblasts; format: cell-based; settings: Mus musculus; for inhibition at 10 µM: NIH3T3, 10 µM; for inhibition at 10 µM / inhibition at 30 µM: 72 h; for inhibition at 30 µM: NIH3T3, 30 µM; for IC50: NIH3T3, 72 h, read-out: calculated IC50 NIH/3T3
Description: as §1, §2, §3

MDA-MB-231 [3] = tested on: MDA-MB-231; set-up: method as in PMID 21912610, PMID 28436164; settings: cited from earlier work
MCF-7dox = tested on: MCF-7dox; set-up: method as in PMID 21912610, PMID 28436164; settings: MCF-7 adapted to doxorubicin; cited from earlier work
[4] = tested on: human adherent cancer cell lines (HeLa, SiHa, C33A, MCF-7 and MDA-MB-231); experiment: MTT assay, whole panel of cell lines; format: cell-based
Description: as §1, §2, §3

HeLa cells [5] = experiment: Mitochondrial membrane potential assay (JC-10, flow cytometry); format: cell-based, human; settings: 24 h
Excerpt: JC-10 dye was used to investigate the changes in the mitochondrial membrane potential. JC-10 is a cationic dye that can pass through the cell membrane and accumulate in healthy mitochondria by forming reversible red-fluorescent aggregates. In addition, changes in membrane potential result in the failure to retain the aggregates. Therefore, the dye returns to the cytosol in green monomeric form. Mitochondrial changes may be detected by measuring the green and red fluorescent signals together.
Hela cells were seeded into 12-well plates at 200,000 cells/well density and incubated overnight. Cells were treated with 1 and 2 µM of 17c for 24 h and 10 µM of CCCP as reference compound ^S1. After the incubation, cells were collected and centrifuged at 1100 rpm for 6 minutes, then washed with PBS. After centrifugation, 300 µl dye solution (20 µM JC-10 final concentration) was added to the pellet. After 5 min incubation, cells were measured by CytoFLEX flow cytometer, recorded by CytExpert Software (Beckman Coulter INC, Brea, CA, USA) reading of red and green fluorescence on 525 and 585 channels.

HeLa cells [6] = experiment: Cell cycle analysis by flow cytometry (propidium iodide); format: cell-based, human; settings: 24 and 48 h
Description: To determine the cellular DNA content of the cells, flow cytometry analysis after propidium-iodide labeling was performed. Propidium iodide is a nuclear dye intercalating between the base pairs in DNA without sequence preference. Therefore, the cells' total emitted fluorescence will depend on each cell's DNA content, which varies depending on the cell cycle phase.
Hela cells were seeded into 12-well plates at 200,000 cells/well density for the cell cycle analysis. Cells were incubated overnight prior to the treatment, then treated with 1, 2, and 3 µM solutions of 14c compound for 24 h and 48 hours. After incubation, cells were washed twice with phosphate-buffered saline (PBS) and harvested. After centrifugation at 1200 rpm, for 7 minutes, cells were washed again with 300 µl PBS and fixed in 500 µl cold 70% ethanol. Samples were stained in 300 µl dye solution containing RNaseA, TritonX-100, sodium citrate, and 0.1 mg/ml-PI in distilled water. The suspension was incubated for 20 minutes in the dark at room temperature. Cells were measured by CytoFLEX flow cytometer, recorded by CytExpert Software (Beckman Coulter INC, Brea, CA, USA). In each analysis, 20,000 events were recorded inside the FSC/SSC gate, and the percentages of the cells in the different phases of the cell cycle were determined and analyzed using ModFit LT 6.0 software.

SMILES	inhibition at 10 µM (MDA-MB-231 [1]) [%]	inhibition at 30 µM (MDA-MB-231 [1]) [%]	IC50 (MDA-MB-231 [1]) [nM]	inhibition at 10 µM (SiHa) [%]	inhibition at 30 µM (SiHa) [%]	IC50 (SiHa) [nM]	inhibition at 10 µM (MCF-7) [%]	inhibition at 30 µM (MCF-7) [%]	IC50 (MCF-7) [nM]	inhibition at 10 µM (C33A) [%]	inhibition at 30 µM (C33A) [%]	IC50 (C33A) [nM]	inhibition at 10 µM (HeLa) [%]	inhibition at 30 µM (HeLa) [%]	IC50 (HeLa) [nM]	inhibition at 10 µM [2] [%]	inhibition at 30 µM [2] [%]	IC50 [2] [nM]	IC50 (MDA-MB-231 [3]) [nM]	other results
CCCCOC1(c2cc(=O)c3c(O)cc(O)cc3o2)C=CC(=O)C=C1 [compound 10, 1′-O-butyl protoapigenone, reference compound]	91.7	92.8	1060	92.2	96.3	1600	87.7	93.3	3030	98	98.5	970	95.7	96.2	1430	95.5	99.1	2270	620	–
O=C1C=CC(O)(c2cc(=O)c3cc(-c4ccccc4)ccc3o2)C=C1 [compound 11]	–	–	–	–	–	–	–	–	–	–	–	–	–	–	–	–	–	–	–	IC50 (MCF-7dox): 1230 nM
O=C1C=CC(O)(c2cc(=O)c3c(O)cc(O)cc3o2)C=C1 [compound 9, Protoapigenone]	–	–	–	–	–	–	–	–	–	–	–	–	–	–	–	–	–	–	1350	–
CCCCOC1(c2cc(=O)c3c(Oc4ccc(C(C)(C)C)cc4)cc(O)cc3o2)C=CC(=O)C=C1 [17c, 2-(1-Butoxy-4-oxocyclohexa-2,5-dienyl)-5-(4-tert-butylphenoxy)-7-hydroxy-chromen-4-one]	98.3	97	420	89.8	96.2	640	98.5	98.9	600	97.9	97.9	390	98	98	470	92.7	99	930	–	IC50 ([4]; Homo sapiens, MTT, 72 h, range across cell lines, read-out: IC50 range over the investigated cell lines): 390 to 640 nM; times stronger activity than parent compound 10 ([4]; ratio of IC50 values, all investigated cell lines): 2.5–5 times; number of mitochondrial membrane-disrupted cells (HeLa cells [5]; 1 and 2 µM, vs untreated controls): significantly increased; effect on mitochondrial membrane potential compared with reference agent CCCP (HeLa cells [5]; CCCP 10 µM): more substantial than that of the applied reference agent CCCP; subG1 phase (HeLa cells [6]): substantial subG1 phase elevation; proportion of the cells at G2/M phase (HeLa cells [6]; concentration-dependent): significantly increases
